Data reported in ChEMBL document CHEMBL5625219, “Design, synthesis fusidic acid derivatives alleviate acute lung injury via inhibiting MAPK/NF-κB/NLRP3 pathway” (Eur J Med Chem, 2023).

Legend:
[1] = system: RAW264.7; assay: Cytotoxicity against mouse RAW264.7 cells assessed as reduction in cell viability at 30 uM incubated for 24 hrs by MTT assay relative to control; type: toxicity, cell-based; conditions: raw264.7, 24 h
[2] = Cytotoxicity against mouse RAW264.7 cells assessed as inhibition of cell growth incubated for 24 hrs by MTT assay; type: toxicity, cell-based

Compound | Activity [1] | IC50 at 24 h [2]
COc1ccc(-c2cc(COC(=O)/C(CCC=C(C)C)=C3\[C@@H](OC(C)=O)C[C@@]4(C)[C@H]3C[C@@H](O)[C@H]3[C@@]5(C)CC[C@@H](O)[C@@H](C)[C@@H]5CC[C@@]34C)on2)cc1OC | 100.7% | 87.3 µM
CC(=O)O[C@H]1C[C@@]2(C)[C@@H](C[C@@H](O)[C@H]3[C@@]4(C)CC[C@@H](O)[C@@H](C)[C@@H]4CC[C@@]32C)/C1=C(\CCC=C(C)C)C(=O)OCc1nnc(-c2ccc([N+](=O)[O-])cc2)o1 | 103.17% | 100 µM
CC(=O)O[C@H]1C[C@@]2(C)[C@@H](C[C@@H](O)[C@H]3[C@@]4(C)CC[C@@H](O)[C@@H](C)[C@@H]4CC[C@@]32C)/C1=C(\CCC=C(C)C)C(=O)OCc1cn(Cc2ccc(Br)cc2)nn1 | 100.93% | 88.7 µM
COc1ccc(-n2cc(COC(=O)/C(CCC=C(C)C)=C3\[C@@H](OC(C)=O)C[C@@]4(C)[C@H]3C[C@@H](O)[C@H]3[C@@]5(C)CC[C@@H](O)[C@@H](C)[C@@H]5CC[C@@]34C)nn2)cc1OC | 102.78% | 76.6 µM
COc1ccc(Cn2cc(COC(=O)/C(CCC=C(C)C)=C3\[C@@H](OC(C)=O)C[C@@]4(C)[C@H]3C[C@@H](O)[C@H]3[C@@]5(C)CC[C@@H](O)[C@@H](C)[C@@H]5CC[C@@]34C)nn2)cc1 | 100.31% | 110 µM
CC(=O)O[C@H]1C[C@@]2(C)[C@@H](C[C@@H](O)[C@H]3[C@@]4(C)CC[C@@H](O)[C@@H](C)[C@@H]4CC[C@@]32C)/C1=C(\CCC=C(C)C)C(=O)OCc1cn(Cc2ccc(Cl)c(Cl)c2)nn1 | 100.62% | 49.8 µM
CC(=O)O[C@H]1C[C@@]2(C)[C@@H](C[C@@H](O)[C@H]3[C@@]4(C)CC[C@@H](O)[C@@H](C)[C@@H]4CC[C@@]32C)/C1=C(\CCC=C(C)C)C(=O)OCc1cn(-c2ccc(F)cc2)nn1 | 100.85% | 46.5 µM
CC(=O)O[C@H]1C[C@@]2(C)[C@@H](C[C@@H](O)[C@H]3[C@@]4(C)CC[C@@H](O)[C@@H](C)[C@@H]4CC[C@@]32C)/C1=C(\CCC=C(C)C)C(=O)OCc1cn(-c2ccc(Br)cc2)nn1 | 92.58% | 54.5 µM
COc1ccc(-c2cc(COC(=O)/C(CCC=C(C)C)=C3\[C@@H](OC(C)=O)C[C@@]4(C)[C@H]3C[C@@H](O)[C@H]3[C@@]5(C)CC[C@@H](O)[C@@H](C)[C@@H]5CC[C@@]34C)on2)cc1 | 97.68% | 77.2 µM
CC(=O)O[C@H]1C[C@@]2(C)[C@@H](C[C@@H](O)[C@H]3[C@@]4(C)CC[C@@H](O)[C@@H](C)[C@@H]4CC[C@@]32C)/C1=C(\CCC=C(C)C)C(=O)OCc1cn(-c2ccc(C)cc2)nn1 | 96.68% | 89.6 µM
CC(=O)O[C@H]1C[C@@]2(C)[C@@H](C[C@@H](O)[C@H]3[C@@]4(C)CC[C@@H](O)[C@@H](C)[C@@H]4CC[C@@]32C)/C1=C(\CCC=C(C)C)C(=O)OCc1cc(-c2ccc(Br)cc2)no1 | 96.29% | 40.9 µM
CC(=O)O[C@H]1C[C@@]2(C)[C@@H](C[C@@H](O)[C@H]3[C@@]4(C)CC[C@@H](O)[C@@H](C)[C@@H]4CC[C@@]32C)/C1=C(\CCC=C(C)C)C(=O)OCc1cc(-c2ccc(C)cc2)no1 | 104.48% | 75.9 µM
CC(=O)O[C@H]1C[C@@]2(C)[C@@H](C[C@@H](O)[C@H]3[C@@]4(C)CC[C@@H](O)[C@@H](C)[C@@H]4CC[C@@]32C)/C1=C(\CCC=C(C)C)C(=O)OCc1nnc(-c2ccc(Cl)cc2)o1 | 103.01% | 44.3 µM
CC(=O)O[C@H]1C[C@@]2(C)[C@@H](C[C@@H](O)[C@H]3[C@@]4(C)CC[C@@H](O)[C@@H](C)[C@@H]4CC[C@@]32C)/C1=C(\CCC=C(C)C)C(=O)OCc1cc(-c2ccc(F)cc2)no1 | 103.63% | 62.4 µM
